Source: PubChem BioAssay AID2060902 (Molecular Pharmacology Branch, DTP, NCI, 2025)

Tested on: 485368-065-R3-J5-PDC spheroids with HUVEC/MSC, viability
Experiment: Anticancer human tumor 485368-065-R3-J5-PDC patient-derived pancreatic carcinoma cell line growth inhibition [RAS]
Settings: for IC50: curve of first compound; for viability, T/C: stronger effect = lower value
Source text: RAS pathway inhibitors in Combinations in Complex Spheroids
A high-throughput screen of multi-cell type tumor spheroids was designed to identify active combinations of RAS pathway inhibitors and targeted small molecules. Complex spheroids include a stromal component modeled by human endothelial cells (HUVEC) and fibroblasts modeled by human mesenchymal stem cells (MSCs). The concentration ranges selected for each drug and investigational agent were based upon clinically achievable concentrations if the clinical Cmax of the agent was known.
Compounds. The drugs and investigational agents: abemaciclib (NSC768073), cobimetinib (NSC768068), divarasib (GDC6063, NSC841802), docetaxel (NSC628503), GDC-1971 (RLY-1971, NSC841576), gemcitabine (NSC613327), inavolisib (NSC800729), ipatasertib (NSC767898), KB-0742 (NSC834161), MRTX-1133 (NSC836407), osimertinib (NSC779217), RMC-4630 (NSC839698), RMC-6236 (NSC851965), RMC-6291 (NSC852671), Ro-3306 (NSC812927), sapanisertib (NSC764658), SN-38 (NSC673596), staurosporine (NSC755774), SY5609 (NSC837396), and tovorafenib (DAY101, NSC766906), were obtained from the National Cancer Institute (NCI) Developmental Therapeutics Program Chemical Repository. The FDA-approved anticancer drug set is available from the NCI Developmental Therapeutics Program. […] The stock solutions were prepared in dimethyl sulfoxide (DMSO, Sigma-Aldrich, St. Louis, MO, cat. D2650) at 800-fold the tested concentration and stored at -70 degrees C prior to their use. All drugs and investigational agents were tested over a range starting from a high concentration at or near the clinical Cmax and decreasing in half-log increments. If the clinical Cmax for an agent had not been determined, the highest concentration tested was 10 microM.
Cell Culture. All cells were maintained in an incubator at 37 degrees C and 5% CO2 with 95% humidity. The PDC lines were cultured according to standard operating procedures established by the NCI PDMR. All PDCs were thawed and cultured in Matrigel-coated flasks prepared with a working solution of 1X Ham's F-12 nutrient mix, without supplementation (Invitrogen, Waltham, MA, cat. 11765054), 100 U/mL penicillin-streptomycin (Invitrogen, cat. 15140122), and 2.5% Matrigel (Corning Inc., Corning, NY, cat. 354248) for the first three passages. The 362531-283-R-J2-PDC and 782815-120-R-J1-PDC lines were cultured in 6C/Colon 1B media, which includes advanced DMEM/F-12 (Thermo Fisher Scientific, cat. 12634028), 10 mM HEPES (Thermo Fisher Scientific, cat. 15630080), 1X GlutaMAX supplement (Thermo Fisher Scientific, cat. 35050061), 0.1 mg/mL primocin (InvivoGen, San Diego, CA, cat. ant-pm-2), 10% defined fetal bovine serum, heat inactivated (HyClone Laboratories Inc., Logan, UT, cat. SH30070.03HI), 50% L-WRN conditioned media (ATCC, cat. CRL-3276), 1.25 mM N-Acetyl-L-cysteine (Sigma-Aldrich, cat. A9165), 10 mM nicotinamide (Sigma-Aldrich, cat. N0636), 1X B-27 supplement (Thermo Fisher Scientific, cat. 17504044), 1X N-2 supplement (Thermo Fisher Scientific, cat. 17502048), 50 ng/mL human EGF (Thermo Fisher Scientific, cat. PHG0311), and 10 microM Y-27632 dihydrochloride (Tocris Bioscience, cat. 1254). The K12877-001-R-J1-PDC line was cultured in 6I media, which includes all 6C/Colon 1B media plus 10 ng/mL human FGF-10 (PeproTech, cat. 100-26), 1 ng/mL human FGF-2 (PeproTech, cat. 100-18B), 1 µM prostaglandin E2 (Tocris Bioscience, cat. 2296), […] hydrocortisone (Sigma-Aldrich, cat. H4001), and […] bovine insulin (Sigma-Aldrich, cat. I6634). The K86415-001-R-J1-PDC line was cultured in 6D media, which includes all 6C/Colon 1B media components minus the L-WRN conditioned media. The 485176-168-R4-J1-PDC was cultured in PANC media, which includes all 6C/Colon 1B media plus 100 ng/mL human FGF-10 (PeproTech, cat. 100-26), 500 nM SB-431542 (Selleckchem, cat. S1067), and 10 nM gastrin (Tocris Bioscience, cat. 3006). […]
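Note: spheroids exposed to agents for seven days before readout.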

CC(Nc1ccc2c(c1)OCCn1cc(N3C(=O)OCC3C(F)F)nc1-2)C(N)=O (configuration not stated) + CCn1c(-c2cc(N3CCN(C)CC3)cnc2C(C)OC)c2c3cc(ccc31)-c1csc(n1)CC(NC(=O)C1CC1C)C(=O)N1CCCC(N1)C(=O)OCC(C)(C)C2
IC50 (second compound 0.000949 µM): < 31.6 nM
IC50 (second compound 0.003 µM): < 31.6 nM
IC50 (second compound 0.00949 µM): < 31.6 nM
IC50 (second compound 0.03 µM): < 31.6 nM
IC50 (second compound 0.0949 µM): < 31.6 nM
IC50 (second compound 0.3 µM): < 31.6 nM
viability, T/C (second compound 0.000949 µM, first compound 0.0316 µM): 26.2%
viability, T/C (second compound 0.000949 µM, first compound 0.1 µM): 23.7%
viability, T/C (second compound 0.000949 µM, first compound 0.316 µM): 24.2%
viability, T/C (second compound 0.000949 µM, first compound 1 µM): 18.2%
viability, T/C (second compound 0.000949 µM, first compound 3.16 µM): 17.5%
viability, T/C (second compound 0.000949 µM, first compound 10 µM): 11.3%
viability, T/C (second compound 0.003 µM, first compound 0.0316 µM): 15%
viability, T/C (second compound 0.003 µM, first compound 0.1 µM): 13.3%
viability, T/C (second compound 0.003 µM, first compound 0.316 µM): 12.6%
viability, T/C (second compound 0.003 µM, first compound 1 µM): 11.2%
viability, T/C (second compound 0.003 µM, first compound 3.16 µM): 10.1%
viability, T/C (second compound 0.003 µM, first compound 10 µM): 7.35%
viability, T/C (second compound 0.00949 µM, first compound 0.0316 µM): 10.8%
viability, T/C (second compound 0.00949 µM, first compound 0.1 µM): 11.4%
viability, T/C (second compound 0.00949 µM, first compound 0.316 µM): 9.57%
viability, T/C (second compound 0.00949 µM, first compound 1 µM): 9.69%
viability, T/C (second compound 0.00949 µM, first compound 3.16 µM): 9.37%
viability, T/C (second compound 0.00949 µM, first compound 10 µM): 6.07%
viability, T/C (second compound 0.03 µM, first compound 0.0316 µM): 10.3%
viability, T/C (second compound 0.03 µM, first compound 0.1 µM): 9.36%
viability, T/C (second compound 0.03 µM, first compound 0.316 µM): 8.76%
viability, T/C (second compound 0.03 µM, first compound 1 µM): 8.73%
viability, T/C (second compound 0.03 µM, first compound 3.16 µM): 7.08%
viability, T/C (second compound 0.03 µM, first compound 10 µM): 4.24%
viability, T/C (second compound 0.0949 µM, first compound 0.0316 µM): 7.86%
viability, T/C (second compound 0.0949 µM, first compound 0.1 µM): 6.77%
viability, T/C (second compound 0.0949 µM, first compound 0.316 µM): 7.07%
viability, T/C (second compound 0.0949 µM, first compound 1 µM): 5.28%
viability, T/C (second compound 0.0949 µM, first compound 3.16 µM): 4.78%
viability, T/C (second compound 0.0949 µM, first compound 10 µM): 2.97%
viability, T/C (second compound 0.3 µM, first compound 0.0316 µM): 6.57%
viability, T/C (second compound 0.3 µM, first compound 0.1 µM): 6.98%
viability, T/C (second compound 0.3 µM, first compound 0.316 µM): 5.66%
viability, T/C (second compound 0.3 µM, first compound 1 µM): 4.05%
viability, T/C (second compound 0.3 µM, first compound 3.16 µM): 4.16%
viability, T/C (second compound 0.3 µM, first compound 10 µM): 2.04%
